Experimental data as given in US8431704B2, “Quinoline or isoquinoline substituted P2X7 antagonists” (Janssen Pharmaceutica NV, priority 2008, dated 2013).

biological target: T1, hP2X7 (Homo sapiens, UniProt Q99572); test: P2X7 antagonism: ligand-induced Ca2+ flux in 1321N1 astrocytoma cells overexpressing hP2X7; assay type: cell-based; settings: pIC50 = -log(IC50), read-out: hP2RX7pIC50 (mean pIC50 values) (converted)
T1 construct: expressed in transfected cells; host or cells: 1321N1 astrocytoma cells
T1 sequence (Q99572 1-595): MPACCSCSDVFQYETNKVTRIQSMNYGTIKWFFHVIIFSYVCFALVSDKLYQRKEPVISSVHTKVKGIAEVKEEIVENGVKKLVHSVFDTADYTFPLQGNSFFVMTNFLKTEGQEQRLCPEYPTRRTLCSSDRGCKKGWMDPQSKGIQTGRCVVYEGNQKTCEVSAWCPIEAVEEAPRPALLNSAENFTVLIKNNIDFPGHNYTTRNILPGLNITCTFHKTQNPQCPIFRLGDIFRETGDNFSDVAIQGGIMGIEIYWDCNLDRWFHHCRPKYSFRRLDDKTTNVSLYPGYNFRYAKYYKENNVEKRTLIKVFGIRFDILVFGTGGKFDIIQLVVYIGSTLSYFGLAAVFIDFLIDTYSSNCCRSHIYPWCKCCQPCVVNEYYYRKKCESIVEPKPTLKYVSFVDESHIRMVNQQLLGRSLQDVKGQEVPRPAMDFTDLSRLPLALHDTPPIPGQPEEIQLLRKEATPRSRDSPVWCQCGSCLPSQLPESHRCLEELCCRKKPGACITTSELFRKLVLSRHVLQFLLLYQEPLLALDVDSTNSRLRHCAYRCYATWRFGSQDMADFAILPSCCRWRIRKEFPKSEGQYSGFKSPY
Method: Extracellular binding of ATP to P2X7 that is expressed in the cell-membrane opens the ligand gated cation channel and allows Ca^2+ entry into the cell. This ligand-induced Ca^2+ flux was measured in 1321N1 astrocytoma cells overexpressing hP2X7 for the compounds of the present invention.
The calcium assay kit used (Molecular Devices, R8090), provides a Ca^2+ sensitive dye together with a quenching dye. However, no specifications are given by the manufacturer. The kit most likely consists of a membrane permeable acetoxymethyl (AM) ester of a fluorescent Ca^2+ indicator, such as fluo-4 or fluo-3. Upon cellular uptake, the AM esters get cleaved by esterases, liberating the Ca^2+-sensitive dye which can then bind calcium. The dyes have an absorption spectrum compatible with excitation at 488 nm by argon laser sources and a large fluorescence intensity increase in response to Ca^2+ binding without an accompanying spectral shift. Emission wavelength is in the range of 510-560 nm.
The fluorescence, and thus the changes in intracellular [Ca^2+] in the 1321N1 cells was monitored in time before and after addition of the agonist. The effect of the antagonist was measured as % control and as IC50.

First: O=C(NCC(c1ccc(C(F)(F)F)nc1)N1CCC(F)(F)CC1)c1cccc2ncccc12 (single isomer, unassigned) [Compound 10]
Second: O=C(NCC(c1ccc(Br)nc1)N1CCC(F)(F)CC1)c1cccc2ncccc12 (centres unmarked) [Compound 2]
The IC50 of the first is 2-fold higher: 43.7 nM for the first, 21.4 nM for the second.

`O=C(NCC(c1ccc(C(F)(F)F)nc1)N1CCC(F)(F)CC1)c1cccc2ncccc12` (single isomer, unassigned) [Compound 11] and `O=C(NCC(c1cnc(C(F)(F)F)nc1)N1CCC(F)(F)CC1)c1cccc2ncccc12` (single isomer, unassigned) [Compound 47] are within 1.5-fold of each other in IC50: 52.5 nM for the first, 38 nM for the second.

`O=C(NC[C@H](c1cnc(C(F)(F)F)nc1)N1CCOCC1)c1cccc2nc(NC3CC3)ccc12` (single isomer, unassigned) [Compound 174] and `O=C(NCC(c1cnc(C(F)(F)F)nc1)N1CCCOCC1)c1cccc2nc(NC3CC3)ccc12` (centres unmarked) [Compound 95] are within 1.5-fold of each other in IC50: 66.1 nM for the first, 44.7 nM for the second.

First: O=C(NCC(c1ccc(C(F)(F)F)nc1)N1CCC(F)(F)CC1)c1cccc2ncccc12 (centres unmarked) [Compound 1]
Second: O=C(NCC(c1ccc(C(F)(F)F)nc1)N1CCC(F)(F)CC1)c1cccc2cnccc12 (centres unmarked) [Compound 16]
The IC50 of the first is 3.8-fold lower: 58.9 nM for the first, 224 nM for the second.

Going from `O=C(NCC(c1cccnc1Cl)N1CCC(F)(F)CC1)c1cccc2ncccc12` (centres unmarked) [Compound 3] to `O=C(NCC(c1ccccn1)N1CCC(F)(F)CC1)c1cccc2ncccc12` (centres unmarked) [Compound 25], the IC50 rises from 3630 nM to over 10000 nM.

Compared with `COc1cc(C(=O)NCC(c2ccc(C(F)(F)F)nc2)N2CCC(F)(F)CC2)nc2ccccc12` (centres unmarked) [Compound 12], `O=C(NCC(c1ccc(C(F)(F)F)nc1)N1CCC(F)(F)CC1)c1ccc2ccccc2n1` (centres unmarked) [Compound 14] is 18-fold lower in IC50: 3240 nM for the first, 178 nM for the second.

First: CCCc1cc(C(=O)NCC(c2ccc(C(F)(F)F)nc2)N2CCC(F)(F)CC2)c2ccccc2n1 (centres unmarked) [Compound 18]
Second: CCc1cc2cc(C(=O)NCC(c3ccc(C(F)(F)F)nc3)N3CCC(F)(F)CC3)ccc2nc1C (centres unmarked) [Compound 24]
The IC50 of the first is 95-fold lower: 55 nM for the first, 5250 nM for the second.

First: O=C(NCC(c1ccc(C(F)(F)F)nc1)N1CCC(c2ccccc2)CC1)c1cccc2ncccc12 (centres unmarked) [Compound 27]
Second: O=C(NCC(c1ccc(C(F)(F)F)nc1)N1CCOCC1)c1cccc2ncccc12 (centres unmarked) [Compound 31]
The IC50 of the first is higher: over 10000 nM for the first, 107 nM for the second.

Going from `O=C(NCC(c1cnc(C(F)(F)F)nc1)N1CCC(F)(F)CC1)c1cccc2nc(NCCCO)ccc12` (centres unmarked) [Compound 40] to `Cc1ncc(C(CNC(=O)c2cccc3nc(NCCCO)ccc23)N2CCC(F)(F)CC2)cn1` (centres unmarked) [Compound 132], the IC50 rises from 34.7 nM to 63.1 nM (1.8-fold).

`COc1ccc2c(C(=O)NCC(c3cnc(C(F)(F)F)nc3)N3CCC(F)(F)CC3)cccc2n1` (centres unmarked) [Compound 41] and `O=C(NC[C@@H](c1cnc(C(F)(F)F)nc1)N1CCC(F)(F)CC1)c1cccc2nc(NC3CC3)ccc12` [Compound 175] are within 1.5-fold of each other in IC50: 45.7 nM for the first, 44.7 nM for the second.

`O=C(NCC(c1cnc(C(F)(F)F)nc1)N1CCC(F)(F)CC1)c1cccc2nc(NCC3CC3)ccc12` (centres unmarked) [Compound 42] and `O=C(NCC(c1cnc(C(F)(F)F)nc1)N1CCC(F)(F)CC1)c1cccc2nc(NCC3CCOCC3)ccc12` (centres unmarked) [Compound 146] are within 1.5-fold of each other in IC50: 38 nM for the first, 47.9 nM for the second.

First: O=C(NCC(c1cnc(C(F)(F)F)nc1)N1CCCC1)c1cccc2ncccc12 (centres unmarked) [Compound 45]
Second: O=C(NCC(c1cnc(C(F)(F)F)nc1)N1CCCCCC1)c1cccc2ncccc12 (centres unmarked) [Compound 52]
The IC50 of the first is 50-fold higher: 955 nM for the first, 19.1 nM for the second.

Compared with `O=C(NCC(c1cnc(C(F)(F)F)nc1)N1CCC(F)(F)CC1)c1cccc2nc(N3CCC(O)C3)ccc12` (centres unmarked) [Compound 56], `O=C(NCC(c1cnc(C(F)(F)F)nc1)N1CCOCC1)c1cccc2nc(N3CCC(O)C3)ccc12` (centres unmarked) [Compound 172] is 3-fold higher in IC50: 49 nM for the first, 145 nM for the second.

Going from `O=C(NCC(c1cnc(C(F)(F)F)nc1)N1CCCC(F)(F)C1)c1cccc2ncccc12` (centres unmarked) [Compound 66] to `O=C(NCC(c1cnc(C(F)(F)F)nc1)N1CCCC(F)C1)c1cccc2ncccc12` (centres unmarked) [Compound 71], the IC50 rises from 18.2 nM to 30.9 nM (1.7-fold).

Compared with `CC1CN(C(CNC(=O)c2cccc3ncccc23)c2cnc(C(F)(F)F)nc2)CCO1` (centres unmarked) [Compound 72], `CC1CCCCN1C(CNC(=O)c1cccc2ncccc12)c1cnc(C(F)(F)F)nc1` (centres unmarked) [Compound 73] is 6-fold lower in IC50: 302 nM for the first, 50.1 nM for the second.

First: O=C(NCC(c1cnc(C(F)(F)F)nc1)N1CCCOCC1)c1cccc2nc(N3CCOCC3)ccc12 (centres unmarked) [Compound 87]
Second: O=C(NCC(c1cnc(C(F)(F)F)nc1)N1CCOCC1)c1cccc2nc(N3CCCOCC3)ccc12 (centres unmarked) [Compound 178]
The IC50 of the first is 2-fold lower: 44.7 nM for the first, 91.2 nM for the second.

`O=C(NCC(c1cnc(C(F)(F)F)nc1)N1CCCOCC1)c1cccc2nc(NCCO)ccc12` (centres unmarked) [Compound 89] and `O=C(NCC(c1cnc(C(F)(F)F)nc1)N1CCCOCC1)c1cccc2nc(NCCCO)ccc12` (centres unmarked) [Compound 90] are within 1.5-fold of each other in IC50: 85.1 nM for the first, 87.1 nM for the second.

`O=C(NCC(c1cnc(C(F)(F)F)nc1)N1CCCOCC1)c1cccc2nc(NCC3CCOCC3)ccc12` (centres unmarked) [Compound 94] and `O=C(NCC(c1cnc(C(F)(F)F)nc1)N1CCOCC1)c1cccc2nc(NC3CCCC3)ccc12` (centres unmarked) [Compound 179] are within 1.5-fold of each other in IC50: 81.3 nM for the first, 89.1 nM for the second.

First: Cc1ncc(C(CNC(=O)c2cccc3nc(N4CCCCC4)ccc23)N2CCOCC2)cn1 (centres unmarked) [Compound 98]
Second: Cc1ncc(C(CNC(=O)c2cccc3nc(N4CCCCCC4)ccc23)N2CCOCC2)cn1 (centres unmarked) [Compound 119]
The IC50 of the first is 1.7-fold lower: 52.5 nM for the first, 89.1 nM for the second.

Going from `CC(C)(C)OC(=O)N1CCN(c2ccc3c(C(=O)NCC(c4cnc(C(F)(F)F)nc4)N4CCCCCC4)cccc3n2)CC1` (centres unmarked) [Compound 107] to `O=C(NCC(c1cnc(C(F)(F)F)nc1)N1CCCCCC1)c1cccc2nc(N3CCNCC3)ccc12` (centres unmarked) [Compound 109], the IC50 falls from 389 nM to 22.4 nM (17-fold).

`CCN1CCN(c2ccc3c(C(=O)NCC(c4cnc(C)nc4)N4CCOCC4)cccc3n2)CC1` (centres unmarked) [Compound 116] and `Cc1ncc(C(CNC(=O)c2cccc3nc(N4CCN(C(C)C)CC4)ccc23)N2CCOCC2)cn1` (centres unmarked) [Compound 118] are within 1.5-fold of each other in IC50: 186 nM for the first, 162 nM for the second.

`Cc1ncc(C(CNC(=O)c2cccc3nc(OC(C)C)ccc23)N2CCOCC2)cn1` (centres unmarked) [Compound 117] and `CCOc1ccc2c(C(=O)NCC(c3cnc(C)nc3)N3CCOCC3)cccc2n1` (centres unmarked) [Compound 121] are within 1.5-fold of each other in IC50: 182 nM for the first, 251 nM for the second.

Compared with `Cc1ncc(C(CNC(=O)c2cccc3nc(N4CCOCC4)ccc23)N2CCOCC2)cn1` (centres unmarked) [Compound 122], `O=C(NCC(c1cnc(O)nc1)N1CCC(F)(F)CC1)c1cccc2nc(N3CCOCC3)ccc12` (centres unmarked) [Compound 144] is 9.1-fold higher in IC50: 115 nM for the first, 1050 nM for the second.

Going from `O=C(NCC(c1cnc(C(F)(F)F)nc1)N1CCCC(F)(F)C1)c1cccc2nc(N3CCNCC3)ccc12` (centres unmarked) [Compound 127] to `O=C(NC[C@H](c1cnc(C(F)(F)F)nc1)N1CCC(F)(F)CC1)c1cccc2nc(N3CCNCC3)ccc12` [Compound 171], the IC50 rises from 14.1 nM to 26.9 nM (1.9-fold).

`O=C(NCC(c1cnc(C(F)(F)F)nc1)N1CCCOCC1)c1cccc2nc(N3CCNCC3)ccc12` (centres unmarked) [Compound 128] and `O=C(NCC(c1cnc(C(F)(F)F)nc1)N1CCOCC1)c1cccc2nc(N3CCCC3)ccc12` (centres unmarked) [Compound 162] are within 1.5-fold of each other in IC50: 46.8 nM for the first, 45.7 nM for the second.

First: O=C(NCC(c1cnc(C(F)(F)F)nc1)N1CCC(F)CC1)c1cccc2nc(N3CC(O)C3)ccc12 (centres unmarked) [Compound 155]
Second: NC1CCN(c2ccc3c(C(=O)NCC(c4cnc(C(F)(F)F)nc4)N4CCOCC4)cccc3n2)CC1 (centres unmarked) [Compound 167]
The IC50 of the first is 1.8-fold lower: 64.6 nM for the first, 117 nM for the second.

`COC1CCN(c2ccc3c(C(=O)NCC(c4cnc(C(F)(F)F)nc4)N4CCOCC4)cccc3n2)CC1` (centres unmarked) [Compound 161] and `O=C(NCC(c1cnc(C(F)(F)F)nc1)N1CCOCC1)c1cccc2nc(N3CCCCC3)ccc12` (centres unmarked) [Compound 163] are within 1.5-fold of each other in IC50: 46.8 nM for the first, 37.2 nM for the second.

Compared with `CCOc1ccc2c(C(=O)NCC(c3cnc(C(F)(F)F)nc3)N3CCOCC3)cccc2n1` (centres unmarked) [Compound 166], `CC(C)Nc1ccc2c(C(=O)NCC(c3cnc(C(F)(F)F)nc3)N3CCOCC3)cccc2n1` (centres unmarked) [Compound 168] is 1.5-fold higher in IC50: 49 nM for the first, 75.9 nM for the second.

`O=C(NCC(c1cnc(C(F)(F)F)nc1)N1CCOCC1)c1cccc2nc(N3CCN(C4CC4)CC3)ccc12` (centres unmarked) [Compound 173] and `CC(C)N1CCN(c2ccc3c(C(=O)NCC(c4cnc(C(F)(F)F)nc4)N4CCOCC4)cccc3n2)CC1` (centres unmarked) [Compound 181] are within 1.5-fold of each other in IC50: 70.8 nM for the first, 93.3 nM for the second.

Going from `O=C(NCC(c1cnc(N2CCCC2)nc1)N1CCC(F)(F)CC1)c1cccc2nc(N3CCOCC3)ccc12` (centres unmarked) [Compound 176] to `O=C(NCC(c1cnc(C(F)(F)F)nc1)N1CCOCC1)c1cccc2nc(N3CCC(F)(F)CC3)ccc12` (centres unmarked) [Compound 177], the IC50 falls from 186 nM to 47.9 nM (3.9-fold).

First: CC(C)CNc1ccc2c(C(=O)NCC(c3cnc(C(F)(F)F)nc3)N3CCOCC3)cccc2n1 (centres unmarked) [Compound 180]
Second: CC(C)OCCCNc1ccc2c(C(=O)NCC(c3cnc(C(F)(F)F)nc3)N3CCOCC3)cccc2n1 (centres unmarked) [Compound 182]
The IC50 of the first is 1.7-fold lower: 67.6 nM for the first, 112 nM for the second.
